One test has as its target Cytochrome P450 3A4 (Homo sapiens, UniProt P08684).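 Note: CYP3A4 tested as one member of a cytochrome P450 panel screen.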
The target in a further test is Cytochrome P450 2C9 (Homo sapiens, UniProt P11712).
Test [1] deals with T1, Rac GTPase-activating protein 1 (Homo sapiens, UniProt Q9H0H5).
T1 sequence (Q9H0H5 whole entry): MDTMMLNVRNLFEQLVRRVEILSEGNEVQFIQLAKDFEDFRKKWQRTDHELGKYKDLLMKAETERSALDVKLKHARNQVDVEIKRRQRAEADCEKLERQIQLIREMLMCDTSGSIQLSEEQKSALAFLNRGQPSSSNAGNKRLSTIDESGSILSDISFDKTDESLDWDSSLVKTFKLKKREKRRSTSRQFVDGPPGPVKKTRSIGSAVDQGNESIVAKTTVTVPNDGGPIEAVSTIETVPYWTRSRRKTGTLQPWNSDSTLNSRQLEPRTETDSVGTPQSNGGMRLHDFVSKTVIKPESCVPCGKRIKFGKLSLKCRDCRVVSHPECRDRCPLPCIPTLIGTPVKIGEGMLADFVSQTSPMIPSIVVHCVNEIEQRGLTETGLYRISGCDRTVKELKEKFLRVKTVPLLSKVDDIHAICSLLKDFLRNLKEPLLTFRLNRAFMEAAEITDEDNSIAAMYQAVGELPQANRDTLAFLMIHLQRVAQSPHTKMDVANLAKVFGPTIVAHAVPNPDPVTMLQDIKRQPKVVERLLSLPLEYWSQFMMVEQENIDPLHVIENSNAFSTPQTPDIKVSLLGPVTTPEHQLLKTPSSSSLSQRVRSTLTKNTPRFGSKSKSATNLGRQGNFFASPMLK
Put plainly: blockers of MgcRacGAP-driven Rac1 GTP hydrolysis – biochemical, ADP Hunter fluorescence, primary and confirmatory, confirmation (AID 624330). It is filed as functional.

The target in another test is T2, Protein RecA (Mycobacterium tuberculosis, UniProt P9WHJ3).
T2 sequence (P9WHJ3 whole entry): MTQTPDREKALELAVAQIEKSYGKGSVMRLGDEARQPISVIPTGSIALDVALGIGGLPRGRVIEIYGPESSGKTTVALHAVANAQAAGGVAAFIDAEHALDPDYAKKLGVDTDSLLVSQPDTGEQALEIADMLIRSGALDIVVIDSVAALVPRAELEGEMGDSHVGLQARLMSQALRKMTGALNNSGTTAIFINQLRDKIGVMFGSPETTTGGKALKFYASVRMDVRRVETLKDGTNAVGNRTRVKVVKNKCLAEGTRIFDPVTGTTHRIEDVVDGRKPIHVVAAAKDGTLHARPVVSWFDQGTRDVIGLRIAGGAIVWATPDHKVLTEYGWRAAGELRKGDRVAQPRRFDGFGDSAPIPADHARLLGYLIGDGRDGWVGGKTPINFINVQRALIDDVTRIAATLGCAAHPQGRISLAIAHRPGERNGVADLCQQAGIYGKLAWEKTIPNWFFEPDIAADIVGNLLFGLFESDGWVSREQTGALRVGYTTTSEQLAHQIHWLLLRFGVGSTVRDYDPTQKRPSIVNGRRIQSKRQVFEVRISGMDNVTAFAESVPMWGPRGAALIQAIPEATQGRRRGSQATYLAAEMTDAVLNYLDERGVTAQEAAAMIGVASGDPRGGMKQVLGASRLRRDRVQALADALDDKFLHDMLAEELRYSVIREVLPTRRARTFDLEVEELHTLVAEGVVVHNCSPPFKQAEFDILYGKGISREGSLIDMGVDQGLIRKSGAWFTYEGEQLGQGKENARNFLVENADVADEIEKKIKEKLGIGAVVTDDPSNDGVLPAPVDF
Put plainly: Fluorescence Cell-Free Homogeneous Dose Retest to Identify Inhibitors of RecA-Intein Splicing Activity. [Related pubchem assays (depositor defined):AID2097, AID2223, AID489010, AID492950]. It is filed as functional.

Test [2] deals with T3, Replicative DNA helicase DnaB (Mycobacterium tuberculosis, UniProt P9WMR3).
T3 sequence (P9WMR3 whole entry): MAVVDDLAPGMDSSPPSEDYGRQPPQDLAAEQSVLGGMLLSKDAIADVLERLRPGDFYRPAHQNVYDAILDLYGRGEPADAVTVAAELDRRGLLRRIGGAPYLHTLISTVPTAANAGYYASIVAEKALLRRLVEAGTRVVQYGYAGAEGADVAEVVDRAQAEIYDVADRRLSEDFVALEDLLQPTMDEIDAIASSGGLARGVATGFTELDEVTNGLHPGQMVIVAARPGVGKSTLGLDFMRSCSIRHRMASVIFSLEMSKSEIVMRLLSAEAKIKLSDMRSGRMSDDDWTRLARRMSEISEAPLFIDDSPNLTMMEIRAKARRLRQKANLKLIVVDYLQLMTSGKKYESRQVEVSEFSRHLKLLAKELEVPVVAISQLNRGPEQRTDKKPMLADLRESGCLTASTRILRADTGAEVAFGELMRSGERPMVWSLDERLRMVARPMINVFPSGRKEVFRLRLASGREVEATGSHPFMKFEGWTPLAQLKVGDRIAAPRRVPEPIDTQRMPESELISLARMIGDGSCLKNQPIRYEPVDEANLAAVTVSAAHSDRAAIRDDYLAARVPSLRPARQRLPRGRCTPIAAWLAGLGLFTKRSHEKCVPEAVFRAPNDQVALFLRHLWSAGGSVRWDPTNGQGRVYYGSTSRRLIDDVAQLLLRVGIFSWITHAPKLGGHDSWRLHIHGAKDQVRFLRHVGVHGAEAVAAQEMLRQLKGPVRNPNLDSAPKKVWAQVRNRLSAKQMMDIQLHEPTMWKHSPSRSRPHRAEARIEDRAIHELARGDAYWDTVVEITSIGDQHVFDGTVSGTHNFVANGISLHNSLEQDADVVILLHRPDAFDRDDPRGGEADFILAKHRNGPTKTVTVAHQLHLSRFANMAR
The test is described as follows: DnaB intein splicing inhibitors, dose response, biochemical, cell-free fluorescence (AID 449749). Type of test: functional.

Another test concerns the target Cytochrome P450 2C19 (Homo sapiens, UniProt P33261). The test is described as follows: Cytochrome panel assay with activity outcomes. Panel member name: p450-cyp2c19 Compounds with AC50 equal or less than 10 uM are considered active. Type of test: functional. Conditions: read-out: AC50.
For test [3], the target named is T4, Heat shock factor protein 1 (Mus musculus, UniProt P38532).
T4 sequence (P38532 whole entry): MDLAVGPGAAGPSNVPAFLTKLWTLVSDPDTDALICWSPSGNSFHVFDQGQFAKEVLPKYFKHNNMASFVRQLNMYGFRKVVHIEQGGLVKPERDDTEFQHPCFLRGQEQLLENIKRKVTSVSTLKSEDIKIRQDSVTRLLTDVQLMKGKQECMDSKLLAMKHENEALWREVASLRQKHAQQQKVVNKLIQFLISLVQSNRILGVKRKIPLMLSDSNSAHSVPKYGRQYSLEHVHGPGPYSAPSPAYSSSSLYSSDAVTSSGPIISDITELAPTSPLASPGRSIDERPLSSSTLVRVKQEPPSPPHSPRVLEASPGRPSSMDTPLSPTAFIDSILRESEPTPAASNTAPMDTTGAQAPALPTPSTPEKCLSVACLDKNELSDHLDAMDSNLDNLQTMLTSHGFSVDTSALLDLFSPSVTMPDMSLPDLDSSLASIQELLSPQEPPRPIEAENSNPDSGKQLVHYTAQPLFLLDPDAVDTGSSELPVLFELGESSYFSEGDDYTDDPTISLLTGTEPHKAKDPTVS
Put plainly: decrease of HSF1-responsive luciferase luminescence – cell-based, NIH3T3, dose retest, confirmation (AID 2382).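 Note: NIH3T3 fibroblasts with HSF1-driven luciferase reporter stressed by proteasome inhibitor MG132; luminescence from HSF1-driven luciferase expression after 8 hours of MG132 stress.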 Type of test: functional.

The target in test [4] is T5, Corticotropin-releasing factor receptor 2/Corticotropin-releasing factor-binding protein (Homo sapiens, UniProt P24387+Q13324).
T5 sequence (Q13324 whole entry): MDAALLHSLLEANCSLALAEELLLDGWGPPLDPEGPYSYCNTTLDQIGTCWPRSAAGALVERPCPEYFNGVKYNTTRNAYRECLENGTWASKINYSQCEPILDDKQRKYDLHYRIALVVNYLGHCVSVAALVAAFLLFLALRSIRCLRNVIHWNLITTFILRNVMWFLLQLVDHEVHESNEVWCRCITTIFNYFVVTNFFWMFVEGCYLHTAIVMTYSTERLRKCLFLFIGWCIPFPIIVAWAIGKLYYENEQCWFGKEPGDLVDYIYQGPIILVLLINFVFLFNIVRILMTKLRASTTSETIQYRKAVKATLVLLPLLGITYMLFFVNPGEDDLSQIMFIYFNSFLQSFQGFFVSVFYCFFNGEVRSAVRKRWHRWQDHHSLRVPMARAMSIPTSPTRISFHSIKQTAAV
T5 sequence (P24387 whole entry): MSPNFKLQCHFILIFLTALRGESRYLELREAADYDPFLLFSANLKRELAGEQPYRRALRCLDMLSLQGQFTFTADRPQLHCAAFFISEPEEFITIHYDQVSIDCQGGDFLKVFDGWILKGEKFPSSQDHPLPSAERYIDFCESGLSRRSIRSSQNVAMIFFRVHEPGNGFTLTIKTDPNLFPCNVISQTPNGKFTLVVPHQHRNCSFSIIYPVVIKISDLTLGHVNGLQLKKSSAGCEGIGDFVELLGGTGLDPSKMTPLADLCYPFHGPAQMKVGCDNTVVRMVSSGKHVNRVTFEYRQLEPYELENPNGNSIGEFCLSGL
The test is described as follows: activators of CRF receptor 2 with binding protein – uHTS hits, confirmation (AID 602473). Conditions: read-out: EC50_Mean. It is filed as functional.

As usually defined, the AC50 is the midpoint of the concentration-response curve, whichever way the signal moves. For orientation: IC50 means the concentration that gives 50% inhibition.

SMILES strings stand for the structures. Activity calls are given as the source filed them.

Chain of Cytochrome P450 3A4 (P08684 whole entry): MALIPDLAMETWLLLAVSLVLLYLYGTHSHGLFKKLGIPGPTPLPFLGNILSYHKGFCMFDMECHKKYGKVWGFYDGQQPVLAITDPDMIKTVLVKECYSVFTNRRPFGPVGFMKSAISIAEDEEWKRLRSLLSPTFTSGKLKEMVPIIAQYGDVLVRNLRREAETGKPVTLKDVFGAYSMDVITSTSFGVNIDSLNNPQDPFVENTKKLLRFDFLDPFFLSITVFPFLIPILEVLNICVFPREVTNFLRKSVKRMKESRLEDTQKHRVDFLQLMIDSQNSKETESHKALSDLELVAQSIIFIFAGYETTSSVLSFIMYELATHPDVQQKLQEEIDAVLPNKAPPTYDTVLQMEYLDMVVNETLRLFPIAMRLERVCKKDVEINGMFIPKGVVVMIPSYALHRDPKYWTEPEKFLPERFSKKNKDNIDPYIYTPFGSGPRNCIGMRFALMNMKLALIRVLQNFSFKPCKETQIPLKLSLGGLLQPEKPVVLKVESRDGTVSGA
Chain of Cytochrome P450 2C9 (P11712 whole entry): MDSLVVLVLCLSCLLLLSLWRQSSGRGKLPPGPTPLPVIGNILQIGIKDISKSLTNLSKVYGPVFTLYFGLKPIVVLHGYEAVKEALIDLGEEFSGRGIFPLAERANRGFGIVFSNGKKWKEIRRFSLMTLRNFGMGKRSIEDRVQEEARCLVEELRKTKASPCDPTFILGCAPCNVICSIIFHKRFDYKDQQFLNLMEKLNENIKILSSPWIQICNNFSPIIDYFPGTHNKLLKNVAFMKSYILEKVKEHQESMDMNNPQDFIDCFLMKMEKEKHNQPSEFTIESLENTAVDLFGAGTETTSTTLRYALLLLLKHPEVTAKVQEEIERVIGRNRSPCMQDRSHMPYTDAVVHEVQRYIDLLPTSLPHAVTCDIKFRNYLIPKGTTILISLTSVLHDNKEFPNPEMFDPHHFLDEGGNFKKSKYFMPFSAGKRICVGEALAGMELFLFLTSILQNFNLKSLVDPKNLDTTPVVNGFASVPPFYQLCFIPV
Chain of Cytochrome P450 2C19 (P33261 whole entry): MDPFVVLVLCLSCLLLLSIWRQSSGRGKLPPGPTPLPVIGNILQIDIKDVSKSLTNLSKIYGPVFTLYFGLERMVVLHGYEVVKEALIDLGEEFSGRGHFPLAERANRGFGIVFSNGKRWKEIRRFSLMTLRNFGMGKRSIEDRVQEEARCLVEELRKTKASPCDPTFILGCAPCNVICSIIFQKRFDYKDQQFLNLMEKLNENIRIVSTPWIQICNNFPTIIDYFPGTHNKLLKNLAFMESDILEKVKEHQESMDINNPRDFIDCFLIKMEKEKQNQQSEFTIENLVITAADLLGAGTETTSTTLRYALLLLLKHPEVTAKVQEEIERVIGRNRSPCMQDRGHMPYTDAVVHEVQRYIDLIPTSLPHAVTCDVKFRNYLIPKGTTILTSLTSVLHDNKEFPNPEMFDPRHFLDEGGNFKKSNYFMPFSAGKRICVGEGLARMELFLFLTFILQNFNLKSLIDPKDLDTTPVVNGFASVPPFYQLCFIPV

Take `Cc1ccc(-c2noc(-c3cc4ccccc4oc3=O)n2)cc1`: the AC50 is 3.55 µM (inconclusive) on Cytochrome P450 3A4 and 6.31 µM (inconclusive) at Cytochrome P450 2C9. For `c1ccc(-c2ccccc2OCCN2CCOCC2)cc1`, the IC50 in test [1] was 111 µM (active).

As for `CCN(CC(=O)NCc1ccc(F)cc1)C(=O)CN1CCN(c2ccc(OC)cc2)CC1`, the IC50 in test [1] was 42.3 µM (active). With `Cc1cc(-c2[nH]nc3c2C(c2ccsc2)C(C#N)=C(N)O3)c(C)s1` (stereo not drawn), the EC50 on Protein RecA is 1.2 µM (active). In test [2], the AC50 was 3.47 µM (active). For `Cc1nc2ccccc2nc1N/N=C/c1ccc(O)cc1`, in test [1], the IC50 was 29.2 µM (active). The same measure, in the same setting: under `COc1ccc(CN2CCN(CCCCOc3ccc(Cl)cc3)CC2)c(OC)c1OC` stands 71.4 µM (active); under `COC(=O)c1ccc(CNC(=O)COC(=O)/C=C/c2ccc(O)c(OC)c2)cc1`, 44.4 µM (active); under `COc1cc2oc(-c3ccc(O)cc3)cc(=O)c2c(OC)c1O`, 18.2 µM (active). Turning to `COc1ccc(NC(=O)C23CC4CC(C2)CC(n2cnc(Br)n2)(C4)C3)c(C)c1`, on Cytochrome P450 3A4, the AC50 is 14.1 µM (inconclusive). Consider `O=C(NC(C(=O)c1ccccc1)n1cnccc1=O)c1ccccc1` (stereo not drawn), for which the AC50 at Cytochrome P450 2C19 is 2.82 µM (inconclusive); on Cytochrome P450 3A4, 14.1 µM (inconclusive); at Cytochrome P450 2C9 it was 8.91 µM (inconclusive).

With `CC1CN(CCCCN2C(=O)c3ccccc3C2=O)CC(C)O1` (stereo not drawn), the IC50 in test [1] is 125 µM (active).

Turning to `CCCCCCCCc1c(O)nc(-n2[nH]c(C)c(CCO)c2=O)[nH]c1=O`, the EC50 at Protein RecA is 96.8 µM (active). For the same compound, in test [2], the AC50 was 47.4 µM (active). In the case of `COc1cc(/C=C/C(=O)OCC(=O)N2CCCc3ccccc32)ccc1O`, in test [1], the IC50 is 36.1 µM (active).

With `CCCc1n[nH]c2c1C(c1c[nH]nc1-c1ccc(F)cc1)C(C#N)=C(N)O2` (stereo not drawn), the EC50 on Protein RecA was 1.54 µM (active). Also, the AC50 in test [2] is 2.08 µM (active). On the same counts, the results for `Cc1cc(=O)n(CCCc2ccccc2)[nH]1` are 2.23 µM (active) and 2.4 µM (active). On to `COc1ccc(NC(=O)CN(C)S(=O)(=O)c2ccc(Cl)cc2)c([N+](=O)[O-])c1`, for which the AC50 at Cytochrome P450 3A4 was 1.78 µM (inconclusive). The same measure, in the same setting: under `O=C(Oc1ccccc1)N1CCC[C@@]2(CCN(c3ncccn3)C2)C1` stands 15.8 µM (inconclusive).

For `O=C(C1CCC(CNS(=O)(=O)c2cccc3cccnc23)CC1)N1CCCC1` (stereo not drawn), the EC50 in test [3] was > 195 µM (not active). Still for that read-out and setting: under `O=S(=O)(CCc1nc2ccccc2[nH]1)c1ccc(Cl)cc1` stands > 195 µM (not active); under `CN(C)C(=O)CSc1nnc(O)nc1O`, > 195 µM (not active). With `Cc1cccc(NC(=O)C2CC2c2ccccc2)c1C` (stereo not drawn), the EC50 in test [4] was > 53 µM (inactive). For the compound `CC1(C)OC(=O)C(/C=N/c2cccc(O)c2)=C(O)O1`, on Cytochrome P450 3A4, the AC50 was 31.6 µM (inconclusive).

As for `CCOC(=O)c1cccc(NC(=O)C2CCN(c3ncnc4c3nc3n4CCCCC3)CC2)c1`, the EC50 in test [3] was > 195 µM (not active). Take `CC(Sc1nnc(Cc2cccs2)n1C1CCCCC1)C(N)=O` (stereo not drawn): the AC50 at Cytochrome P450 3A4 was 3.98 µM (inconclusive). In the case of `O=c1c2ccccc2nc2n1C(CSc1ccc(F)cc1)CN2` (stereo not drawn), the AC50 at Cytochrome P450 3A4 was 31.6 µM (inconclusive); on Cytochrome P450 2C9, 39.8 µM (inconclusive). Turning to `OCCN1CCN(C(S)=Nc2cccc(C(F)(F)F)c2)CC1`, in test [1], the IC50 is 126 µM (active). For `CCCCC/C=C\C[C@H](O)/C=C\c1cccc(C[C@H](O)CCCCO)n1`, the values for the AC50 at Cytochrome P450 3A4 and at Cytochrome P450 2C9 were 6.31 µM (inconclusive) and 20 µM (inconclusive), respectively. `CCOC(=O)n1c(SCC(N)=O)nc2ccccc21`: in test [3], the EC50 is > 195 µM (not active). As to `COc1ccc(/C=C2/CC/C(=C\c3ccc(OC)c(OC)c3OC)C2=O)c(OC)c1OC`, in test [4], the EC50 is > 53 µM (inactive).

The values above are taken from ChEMBL document CHEMBL1201862, “PubChem BioAssay data set” (2004).
